The results in this text go back to paper PMC8151400, “Evidence of the Involvement of a Plus-C Odorant-Binding Protein HparOBP14 in Host Plant Selection and Oviposition of the Scarab Beetle Holotrichia parallela” (Insects, 2021).

For one test, the target named is recombinant HparOBP14 (Holotrichia parallela, UniProt A0A0G2YD86). The test can be described thus: biochemical. The test is classed as binding. The settings on record: for Int (%): relative fluorescence intensity of 1-NPN/HparOBP14 complex after the addition of testing compound: HparOBP14 and 1-NPN 2 µM each, titrated with compound 2–40 μM. The method, then:
To determine the affinity of HparOBP14 to odorant volatiles, the fluorescent displacement binding assay was carried out. A total of 27 compounds was selected, including 7 compounds from host plant (elm) volatiles, 11 compounds from organic fertilizer volatiles, and 9 compounds common in both of them. The odorant compounds (purity ≥95%) were purchased from Sigma-Aldrich. The fluorescent probe N-phenyl-1-naphthylamine (1-NPN) was dissolved in methanol (chromatographic grade) to a final concentration of 1 mM and used as the stock solution. The stock solution of the purified protein was diluted with Tris-HCl (50 mmol/L, pH 7.4) to a final concentration of 2 μM and added into a colorimetric plate cuvette. The 1-NPN stock solution was then successively added to the protein solution to the final concentrations ranging from 2 μM to 20 μM. The fluorescence changes were recorded to get K1-NPN, the dissociation constant of the complex HparOBP14/1-NPN.
The binding ability of HparOBP14 to the odorant compounds was determined by titrating the mixture of the protein and the 1-NPN (final concentration 2 μM of both) with each odorant compound at final concentrations ranging from 2 μM to 40 μM. The competitive dissociation constant was calculated from the corresponding IC50 values using the following equation: Ki = [IC50]/(1+ [1-NPN]/K1-NPN), where [1-NPN] is the free concentration of 1-NPN; K1-NPN is the dissociation constant of the complex HparOBP14/1-NPN.
The fluorescence changes during the binding of either 1-NPN or odorant compounds to the HparOBP14 protein were measured and recorded with the excitation wavelength of 337 nm and within a wavelength range of 350~550 nm by a 970CRT fluorescence spectrophotometer (Yidian Analytical Instrument Company, Shanghai, China).

For test [1], the system named is antennae of H. parallela female adults. Put plainly: Electroantennogram (EAG) recording after dsRNA injection. The test is classed as in vivo, Holotrichia parallela. To be noted: 48 h after dsHparOBP14 injection; 20 μL of 1 μg/μL in paraffin oil. On the procedure:
(§1) The dsRNAs of HparOBP14 and GFP (GenBank number: ACY56286) (for primers, see Table S1) were synthesized using a T7 Ribo MAX™ Express RNAi System (Promega, Madison, WI, USA) according to the manufacturer’s instructions. The GFP-dsRNA was used as the negative control. Nine-to-eleven-day-old female adult beetles were injected with 2 μg dsRNA into the adult head with a 5 μL injection needle (7000 series syringes, Hamilton, USA), then kept under the same condition as 2.1 described above. The antennae were dissected at 24 h, 48 h, 72 h, and 96 h after injection, and the samples were stored at −80 °C for further RT-qPCR analyses.
The EAG recording was conducted on the adult antennae with the EAG micromanipulator MP-15 and analyzed with EAG-Pro (Syntech, Kirchzarten, Germany). Briefly, two ends of the antennae were set on electrode holders with a conductive adhesive (Spectra 360 electrode gel). An ashless filter paper (Hangzhou Special Paper Co., Ltd., Hangzhou, China) was cut into strips (3 cm × 0.5 cm). A 20 μL compound solution (concentration 1 μg/μL in paraffin oil) was applied onto the paper strip which was then placed in a Pasteur tube (17 cm × […]) and applied to the antennae by purified air at a flow rate of 1 L/min. The paraffin oil (20 μL) was used as a control. The stimulus recording time was 0.5 s and the interval between two stimulations was more than 1 min.

Test [2] concerns female Holotrichia parallela adults. Put plainly: Y-tube olfactometer behavioral bioassay. The format is in vivo. The settings on record: for change of attraction after injection of dsHparOBP14: dsHparOBP14-injected females; for behavioral response of uninjected female beetles: uninjected females, vs paraffin oil. The method, then: as §1
The Y-tube olfactometer mainly consisted of a Y-shaped glass tube (main arm, 30 cm; sidearm, 20 cm; inner diameter, 2.5 cm; side arm angle, 60 degrees), an air sampler, a drying tower, a gas scrubber, and a flow meter. Two gas-washing cylinders were successively connected with the flow meter, drying tower, air pump, and Y-shaped glass tube through rubber pipes. The testing compound (concentration 1 μg/μL in paraffin oil) and paraffin oil (as control) were taken and dropped respectively into a rubber septum (Pherobio Technology Co., Ltd., Beijing, China) and placed respectively into the side arms of the Y-tube. The flow rate of the atmospheric air sampler was adjusted to 500 mL/min.
A female adult beetle was introduced into the main arm at the downwind end of the Y-olfactometer. Each beetle was given 5 min to respond to the treatment, and the first choice that the beetle made for each of the lateral arms was recorded. The response was regarded as valid only if the beetle crawled more than 3 cm into a lateral arm and stayed for more than 1 min.
For each compound, more than 90 beetles were tested individually until 90 responsive beetles were obtained. Each individual beetle was tested only once, and the Y-olfactometer was replaced after every 10 beetles were tested to eliminate the odor effect. The number of individual beetles that selected the compound-treated arm of the Y-olfactometer was statistically compared with the number of beetles that selected the solvent-treated arm using a Chi-square goodness of fit test.

Sequence of recombinant HparOBP14 (A0A0G2YD86 entry or part of it): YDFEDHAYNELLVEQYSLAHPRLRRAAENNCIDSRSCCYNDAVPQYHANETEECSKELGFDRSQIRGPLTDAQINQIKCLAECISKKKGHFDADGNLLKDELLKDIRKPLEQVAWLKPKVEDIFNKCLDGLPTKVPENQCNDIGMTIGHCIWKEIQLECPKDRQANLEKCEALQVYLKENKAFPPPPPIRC

`Cc1ccc(C(C)C)cc1` [p-cymene]: on recombinant HparOBP14, the IC50 stood at 29.9 µM, the Ki is 25.5 µM and the “Int (%): relative fluorescence intensity of 1-NPN/HparOBP14 complex after the addition of testing compound” value worked out at 62.70%. The “change of EAG responsive amplitude in dsHparOBP14-injected insects compared to uninjected control” value in test [1] was “decreased significantly”. Moreover, in test [2], the “change of attraction after injection of dsHparOBP14” value is “no obvious change” and the “behavioral response of uninjected female beetles” value was “attracted”.

As to `CC1=CCC2CC1C2(C)C` (stereo not drawn) [α-pinene], at recombinant HparOBP14, the IC50 was 38.5 µM, the Ki came to 32.8 µM and the “Int (%): relative fluorescence intensity of 1-NPN/HparOBP14 complex after the addition of testing compound” value amounted to 67.49%. Moreover, in test [1], the “change of EAG responsive amplitude in dsHparOBP14-injected insects compared to uninjected control” value is “decreased significantly”. Further, in test [2], the “change of attraction after injection of dsHparOBP14” value is recorded as “significantly increased” and the “behavioral response of uninjected female beetles” value was “attracted”.
